From PMC2732577 (Biochemistry, 2008) come the findings set out here.

Entries after “also recorded” stand apart in the source; their conditions may differ. Ends that are not written are not given here.

Holding throughout (type): biochemical
Assay [1] concerns the target T1, Pf-Sir2 (Plasmodium falciparum, UniProt Q8IE47).
T1 sequence (Q8IE47 1-273): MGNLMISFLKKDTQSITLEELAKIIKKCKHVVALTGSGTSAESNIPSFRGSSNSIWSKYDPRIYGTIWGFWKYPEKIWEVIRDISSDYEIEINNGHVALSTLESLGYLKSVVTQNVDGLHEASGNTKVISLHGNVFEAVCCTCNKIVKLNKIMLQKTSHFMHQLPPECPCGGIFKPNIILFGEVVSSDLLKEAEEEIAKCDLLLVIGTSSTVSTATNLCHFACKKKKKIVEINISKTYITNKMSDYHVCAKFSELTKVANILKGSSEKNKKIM

For assay [2], the target named is T1, Pf-Sir2. The source holds these as a separate data set.
In assay [3] the target is T1, Pf-Sir2. The assay is described as follows: Thionicotinamide base-exchange assay. The note with it: similar reaction conditions, H3 substrate.
The target in assay [4] is T1, Pf-Sir2. The source holds these as a separate data set.
Assay [5] concerns the target T1, Pf-Sir2. The assay is described as follows: Decomposition of AADPR in presence of Pf-Sir2. The note with it: data not shown.

Regarding “p300: human di-acetylated p300 sequence corresponding to amino acid positions 1034–1053 (ATQSSPAPGQSKKKIFKPEE; also: di-acetylated, places not given here; UniProt Q09472 1034-1053, looked up, fragment)”, in assay [1], the deacetylation co-product was 2′- and 3′- O-acetyl-ADP-ribose (AADPR). Further, the “stimulation of NAD^+ hydrolysis by peptide” value in assay [2] is recorded as “best hydrolysis stimulating substrate”.
Regarding `NC(=S)c1cccnc1` [thionicotinamide], in assay [3], the “base-exchange Km, times higher than nicotinamide” value came to 8 times and the “base-exchange, times slower than nicotinamide” value is given as “approximately 4 times”.
Take `NC(=O)c1ccc[n+]([C@@H]2O[C@H](COP(=O)([O-])OP(=O)(O)OC[C@H]3O[C@@H](n4cnc5c(N)ncnc54)[C@H](O)[C@@H]3O)[C@@H](O)[C@H]2O)c1` [NAD^+, nicotinamide adenine dinucleotide oxidized form]: the “stereochemistry of Pf-Sir2 methanolysis product” value in assay [4] is “inverted stereochemistry; also recorded: only α-1-O-methyl-ADPR as a product (no β)”. Moreover, in assay [4] (pH 8.5), the “k0 (α-MeO-ADPR)” value turned out to be 0.00027 s⁻¹; the “ksolvolysis (combined ADPR and 1-O-methyl-ADPR)” value came out at 0.00138 s⁻¹. Also, the Michaelis-Menten constant (Km) (as a rule, the substrate concentration at which the rate is half of its maximum) in assay [1] (read-out: Km for NAD^+ in H3 deacetylation) was 120 µM. In assay [2], the “rate of peptide-independent solvolysis vs deacetylation” value is listed as “exceeds the deacetylation rate for H3”. In addition, in assay [2] (pH 7.3), the “kcat, NAD^+ hydrolysis, no peptide” value was 1.2 ± 0.2 10^−3 s^−1.
In the case of “O-acetyl-adenosine diphosphoribose [AADPR]”, the “decomposition of AADPR on adding Pf-Sir2 to SIRT1 reaction mixture” value in assay [5] is “not decomposed”. Further, the “decomposition of purified AADPR in presence of Pf-Sir2” value in assay [5] (relative to a control) is reported as “not decomposed faster relative to a control”.
